Tests used:
Glutamate NMDA receptor = assay: Inhibitory concentration of compound required to displace [3H]TCP 1-[ 1-(2-thienyl)cyclohexyl]piperidine in whole rat brain homogenate
Mus musculus [1] = species: Mus musculus; assay: Ataxia assessment was made immediately prior to NMDA injection using a rotarod measurement; format: functional
[2] = Log P value at pH 7.4; format: physicochemical; conditions: buffer
Mus musculus [3] = assay: In vivo NMDA antagonism of compound was assessed for its ability to prevent lethality in mice due to injection of NMDA; format: functional
Mus musculus [4] = assay: In vivo NMDA antagonism of compound was assessed for its ability to prevent lethality in mice due to injection of NMDA.; format: functional

What does the source list for `CN1C[C@@H]2Cc3ccccc3[C@]13CCCC[C@@H]23`?
IC50 (Glutamate NMDA receptor): 137 nM; ED50 (Mus musculus [1]): 3 mg/kg; logD [2]: 0.94; ED50 (Mus musculus [3]): 1.8 mg/kg

Which ED50 (Mus musculus [4]) does the source give for `CN[C@]12CCCC[C@H]1CCc1ccccc12` here?
The ED50 was 0.54 mg/kg.

What about the IC50 (Glutamate NMDA receptor) of the same compound?
Its IC50 is 14.7 nM.

And the ED50 (Mus musculus [1])?
Its ED50 is 0.44 mg/kg.

What about the logD [2] of the same compound?
Its logD is 1.1.

For `CN1CC[C@]23CCCC[C@@]12c1ccccc1CC3`, which ED50 (Mus musculus [4]) is on record?
Its ED50 is 0.72 mg/kg.

And the IC50 (Glutamate NMDA receptor)?
The IC50 was 16.8 nM.

And the ED50 (Mus musculus [1])?
The ED50 was 0.3 mg/kg.

And the logD [2]?
The logD was 0.53.

Which ED50 (Mus musculus [4]) does the source give for `c1ccc2c(c1)C[C@H]1CN[C@@]23CCCC[C@@H]13` here?
The ED50 was 3.5 mg/kg.

What about the IC50 (Glutamate NMDA receptor) of the same compound?
Its IC50 is 86 nM.

And the ED50 (Mus musculus [1])?
Its ED50 is 3.2 mg/kg.

And the logD [2]?
The logD was -0.1.

Which results are given for `c1ccc2c(c1)CC[C@@]13CCCC[C@]21NCC3`?
IC50 (Glutamate NMDA receptor): 151 nM; ED50 (Mus musculus [1]): 3.2 mg/kg; ED50 (Mus musculus [3]): 3.5 mg/kg

Which results are given for `C[C@]12N[C@H](Cc3ccccc31)c1ccccc12` [DIZOCILPINE]?
ED50 (Mus musculus [4]): 0.34 mg/kg; ED50 (Mus musculus [1]): 0.1 mg/kg; logD [2]: 2.1
